Patent publication US20260209297A1, “ANTIMICROBIAL PEPTIDES AND MODIFICATIONS THEREOF” (priority 2022, published 2026)
Values after ≈ are worked out from the molar mass of the structure shown. Positions of bridges follow the written chain, without caps; N, C: chain ends. Non-standard residues stand in square brackets, D forms with d. Residues, ends and D or L forms follow the SMILES beside them. Dab = NCC[C@H](N)C(=O)O

Tests used:
B. cinerea [1] = assay: MIC antifungal assay in SFM culture media (with or without added salts); format: cell-based, Botrytis cinerea
F. graminearum = format: cell-based, Fusarium graminearum
Botrytis cinerea T-4 = settings: Table 18
B. cinerea [2] = assay: Semi-in planta gray mold assay on detached Nicotiana benthamiana leaves (drop inoculation); format: in vivo, Botrytis cinerea; settings: for gray mold symptoms, drop inoculation assay: 3 and 6 μM

NCC[C@H](NC(=O)CNC(=O)[C@@H](N)Cc1ccccc1)C(=O)N[C@@H](CS)C(=O)N[C@@H](CCN)C(=O)NCC(=O)N[C@@H](Cc1ccccc1)C(=O)N[C@@H](CCN)C(=O)N[C@@H](CCN)C(=O)N[C@@H](CCN)C(=O)N[C@@H](CS)C(=O)N[C@@H](Cc1ccccc1)C(=O)N[C@@H](CS)C(=O)N[C@@H](Cc1c[nH]c2ccccc12)C(=O)N[C@@H](CCN)C(=O)N[C@@H](Cc1c[nH]c2ccccc12)C(=O)N[C@@H](CS)C(=O)O [GMA4C_V5, FG(Dab)C(Dab)GF(Dab)(Dab)(Dab)CFCW(Dab)WC] (H-FG[Dab]C[Dab]GF[Dab][Dab][Dab]CFCW[Dab]WC-OH; N-terminus assumed)
SFM + 2 mM CaCl2 MIC (μM) (B. cinerea [1]; B. cinerea, Table 4): >6 (very μM
SFM + 2 mM CaCl2 MIC (μM) (B. cinerea [1]; Table 10): >6 (very μM

C[C@@H](O)[C@H](NC(=O)[C@H](CS)NC(=O)[C@H](Cc1ccccc1)NC(=O)[C@H](CS)NC(=O)[C@H](CCCNC(=N)N)NC(=O)[C@H](CCCNC(=N)N)NC(=O)[C@H](CCCNC(=N)N)NC(=O)[C@H](Cc1ccccc1)NC(=O)CNC(=O)[C@H](CCCNC(=N)N)NC(=O)[C@H](CS)NC(=O)[C@H](CCCNC(=N)N)NC(=O)CN)C(=O)N[C@H](C(=O)N[C@@H](Cc1c[nH]cn1)C(=O)N[C@@H](CS)C(N)=O)[C@@H](C)O [GMA4AC, reference compound] (H-GRCRGFRRRCFCTTHC-NH2)
MIC (μM) Botrytis cinerea (B. cinerea [1]; SFM, Table 9): 6 µM
MIC (μM) Fusarium graminearum (F. graminearum): 6 µM (≈ 11.8 µg/mL)
MIC (μM) SFM (Botrytis cinerea T-4): 3 µM (≈ 5.88 µg/mL)

CC(C)C[C@H](NC(=O)[C@H](CS)NC(=O)[C@H](C)NC(=O)CN)C(=O)N[C@@H](CCCCN)C(=O)N[C@@H](CC(N)=O)C(=O)N[C@@H](CCCNC(=N)N)C(=O)N[C@@H](Cc1c[nH]cn1)C(=O)N[C@@H](CO)C(=O)N[C@@H](CCCCN)C(=O)N[C@@H](Cc1c[nH]cn1)C(=O)N[C@@H](Cc1ccc(O)cc1)C(=O)NCC(=O)N[C@@H](CS)C(=O)N[C@@H](Cc1ccc(O)cc1)C(=O)N[C@@H](CS)C(=O)N[C@@H](Cc1ccc(O)cc1)C(=O)N[C@@H](Cc1ccc(O)cc1)C(=O)N[C@@H](CCCNC(=N)N)C(=O)N[C@@H](Cc1c[nH]cn1)C(=O)N[C@@H](CS)C(=O)N[C@@H](Cc1ccc(O)cc1)C(N)=O [GMAOe1C_WT, reference compound] (H-GACLKNRHSKHYGCYCYYRHCY-NH2; N-terminus assumed)
reducing gray mold disease symptoms (lesion sizes) (B. cinerea [2]; detached N. benthamiana leaves, 1.5 μM, 3 μM and 6 μM, 48 h): only effective at 6 μM

CC(C)C[C@@H]1NC(=O)[C@@H](NC(=O)[C@H](C)NC(=O)CN)CSSC[C@@H](C(=O)N[C@@H](Cc2ccc(O)cc2)C(N)=O)NC(=O)[C@H](Cc2c[nH]cn2)NC(=O)[C@H](CCCNC(=N)N)NC(=O)[C@H](Cc2ccc(O)cc2)NC(=O)[C@H](Cc2ccc(O)cc2)NC(=O)[C@H](Cc2c[nH]c3ccccc23)NC(=O)[C@H](Cc2ccccc2)NC(=O)[C@H](Cc2ccccc2)NC(=O)CNC(=O)[C@H](Cc2ccc(O)cc2)NC(=O)[C@H](Cc2c[nH]cn2)NC(=O)[C@H](CCCCN)NC(=O)[C@H](CO)NC(=O)[C@H](Cc2c[nH]cn2)NC(=O)[C@H](CCCNC(=N)N)NC(=O)[C@H](CC(N)=O)NC(=O)[C@H](CCCCN)NC1=O [GMAOe1C_V4] (H-GACLKNRHSKHYGFFWYYRHCY-NH2; disulfide 3-21; N-terminus assumed)
MIC (μM) SFM (Botrytis cinerea T-4): 1.5 µM (≈ 4.25 µg/mL)
MIC (μM) (SFM + 100 mM NaCl) (Botrytis cinerea T-4): 6 µM

CC[C@H](C)[C@H](NC(=O)[C@H](CCCNC(=N)N)NC(=O)[C@@H](NC(=O)[C@H](Cc1c[nH]c2ccccc12)NC(=O)[C@H](Cc1ccccc1)NC(=O)[C@H](Cc1c[nH]c2ccccc12)NC(=O)[C@H](CCCNC(=N)N)NC(=O)[C@H](CCCNC(=N)N)NC(=O)[C@H](CCCNC(=N)N)NC(=O)[C@H](Cc1ccccc1)NC(=O)CNC(=O)[C@H](CCCCN)NC(=O)[C@H](CS)NC(=O)[C@H](CCCNC(=N)N)NC(=O)CNC(=O)CN)[C@@H](C)O)C(=O)N[C@@H](CS)C(N)=O [GMA4C_V6A] (H-GGRCKGFRRRWFWTRIC-NH2; N-terminus assumed)
antifungal activity relative to the wild-type GMA4C_AC control, B. cinerea (B. cinerea [1]; in vitro, low cationic conditions): four-fold increase

C[C@@H](O)[C@H](NC(=O)[C@H](CS)NC(=O)[C@H](Cc1ccccc1)NC(=O)[C@H](CS)NC(=O)[C@H](CCCNC(=N)N)NC(=O)[C@H](CCCNC(=N)N)NC(=O)[C@H](CCCNC(=N)N)NC(=O)[C@H](Cc1ccccc1)NC(=O)CNC(=O)[C@H](CCCNC(=N)N)NC(=O)[C@H](CS)NC(=O)[C@H](CCCNC(=N)N)NC(=O)CNC(=O)CN)C(=O)N[C@H](C(=O)N[C@@H](Cc1c[nH]cn1)C(=O)N[C@@H](CS)C(N)=O)[C@@H](C)O [GMA4C_AC, reference compound] (H-GGRCRGFRRRCFCTTHC-NH2; N-terminus assumed)
antifungal activity against B. cinerea in presence of cations (B. cinerea [1]; 100 mM NaCl or 100 mM KCl): retain their antifungal activity
SFM + 2 mM CaCl2 MIC (μM) (B. cinerea [1]; B. cinerea, Table 4): >6 (a few μM
SFM + 2 mM CaCl2 MIC (μM) (B. cinerea [1]; Table 10): >6 (a few μM

CC(C)C[C@@H]1NC(=O)[C@@H](NC(=O)[C@H](C)NC(=O)CN)CSSC[C@@H](C(=O)N[C@@H](Cc2ccc(O)cc2)C(N)=O)NC(=O)[C@H](Cc2c[nH]cn2)NC(=O)[C@H](CCCNC(=N)N)NC(=O)[C@H](Cc2ccc(O)cc2)NC(=O)[C@H](Cc2ccc(O)cc2)NC(=O)[C@H](Cc2c[nH]c3ccccc23)NC(=O)[C@H](Cc2ccccc2)NC(=O)[C@H](Cc2c[nH]c3ccccc23)NC(=O)CNC(=O)[C@H](Cc2ccc(O)cc2)NC(=O)[C@H](Cc2c[nH]cn2)NC(=O)[C@H](CCCCN)NC(=O)[C@H](CO)NC(=O)[C@H](Cc2c[nH]cn2)NC(=O)[C@H](CCCNC(=N)N)NC(=O)[C@H](CC(N)=O)NC(=O)[C@H](CCCCN)NC1=O [GMAOe1C_V3] (H-GACLKNRHSKHYGWFWYYRHCY-NH2; disulfide 3-21; N-terminus assumed)
gray mold symptoms, drop inoculation assay, comparison within the peptide family (B. cinerea [2]; 1.5 μM): more effective
MIC (μM) SFM (Botrytis cinerea T-4): 1.5 µM (≈ 4.31 µg/mL)
MIC (μM) (SFM + 2 mM CaCl2) (Botrytis cinerea T-4): 3 to 6 µM
MIC (μM) (SFM + 100 mM NaCl) (Botrytis cinerea T-4): 2 to 3 µM

CC[C@H](C)[C@H](NC(=O)[C@H](CCCNC(=N)N)NC(=O)[C@H](CS)NC(=O)[C@H](CCCNC(=N)N)NC(=O)CNC(=O)[C@@H](N)CO)C(=O)N[C@@H](CC(C)C)C(=O)N[C@@H](Cc1ccccc1)C(=O)N[C@@H](CCCNC(=N)N)C(=O)N[C@@H](CS)C(=O)N[C@@H](Cc1ccccc1)C(=O)N[C@@H](CS)C(=O)N[C@H](C(=O)N[C@@H](CCCCN)C(=O)N[C@@H](CC(N)=O)C(=O)N[C@@H](CS)C(N)=O)[C@@H](C)O [GMA1C_V1] (H-SGRCRILFRCFCTKNC-NH2; N-terminus assumed)
gray mold symptoms, drop inoculation assay (B. cinerea [2]): failed to reduce disease symptoms

CC[C@H](C)[C@@H]1NC(=O)[C@H](CCCNC(=N)N)NC(=O)[C@@H](NC(=O)[C@H](CCCNC(=N)N)NC(=O)CNC(=O)[C@@H](N)CO)CSSC[C@@H](C(N)=O)NC(=O)[C@H](CC(N)=O)NC(=O)[C@H](CCCCN)NC(=O)[C@H]([C@@H](C)O)NC(=O)[C@H](Cc2c[nH]c3ccccc23)NC(=O)[C@H](Cc2ccccc2)NC(=O)[C@H](Cc2c[nH]c3ccccc23)NC(=O)[C@H](CCCNC(=N)N)NC(=O)[C@H](Cc2ccccc2)NC(=O)[C@H](CC(C)C)NC1=O [GMA1C_V2] (H-SGRCRILFRWFWTKNC-NH2; disulfide 4-16; N-terminus assumed)
gray mold symptoms, drop inoculation assay, comparison within the peptide family (B. cinerea [2]; 1.5 μM): more effective
gray mold symptoms, drop inoculation assay (B. cinerea [2]): completely abrogated gray mold symptoms
MIC (μM) (SFM + 2 mM CaCl2) (Botrytis cinerea T-4): 3 µM
MIC (μM) (SFM + 100 mM KCl) (Botrytis cinerea T-4): >12 µM
MIC (μM) (SFM + 100 mM NaCl) (Botrytis cinerea T-4): 3 µM
